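Each compound was tested at five concentrations against cells in 96-well plates for 48 hours. At the GI50, growth is halved.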 Activity calls are given as the source filed them. Cut-off read from the data, not from the text of the source: active = GI50 up to about 1.1 µM and inactive = higher.
Key:
Experiment in all cases: DTP human tumour cell line panel, 48 h
OVCAR-8 = test system: OVCAR-8
DMS-114 = test system: DMS-114
SNB-78 = test system: SNB-78
SF-295 = test system: SF-295
MOLT-4 = test system: MOLT-4
XF498 = test system: XF498
HOP-18 = test system: HOP-18
OVCAR-5 = test system: OVCAR-5
SF-539 = test system: SF-539
NCI-H460 = test system: NCI-H460
HCC 2998 = test system: HCC 2998
EKVX = test system: EKVX
IGROV-1 = test system: IGROV-1
KM-20L2 = test system: KM-20L2
SK-MEL-28 = test system: SK-MEL-28
SR = test system: SR
HL-60 = test system: HL-60
SNB-75 = test system: SNB-75
SK-OV-3 = test system: SK-OV-3
M19-MEL = test system: M19-MEL
HT-29 = test system: HT-29
HCT-116 = test system: HCT-116
HOP-92 = test system: HOP-92
786-0 = test system: 786-0
UACC-257 = test system: UACC-257
TK-10 = test system: TK-10
HCT-15 = test system: HCT-15
COLO 205 = test system: COLO 205
LXFL 529 = test system: LXFL 529
CAKI-1 = test system: CAKI-1
KM12 = test system: KM12
NCI-H226 = test system: NCI-H226
A549 = test system: A549
DLD-1 = test system: DLD-1
Malme-3M = test system: Malme-3M
NCI-H522 = test system: NCI-H522
SW-620 = test system: SW-620
SK-MEL-2 = test system: SK-MEL-2
DMS-273 = test system: DMS-273
RXF 631 = test system: RXF 631
NCI-H23 = test system: NCI-H23
RPMI-8226 = test system: RPMI-8226
ACHN = test system: ACHN
OVCAR-3 = test system: OVCAR-3
CCRF-CEM = test system: CCRF-CEM
K562 = test system: K562
UO-31 = test system: UO-31
HOP-62 = test system: HOP-62
UACC-62 = test system: UACC-62
SN12C = test system: SN12C
OVCAR-4 = test system: OVCAR-4
A498 = test system: A498
SNB-19 = test system: SNB-19
SK-MEL-5 = test system: SK-MEL-5
SF-268 = test system: SF-268
M14 = test system: M14
U-251 = test system: U-251

`Cc1cccc(C)c1NC(=O)CCCC(=O)C1/C(=N/NC(=O)CC#N)CCC/C1=N\NC(=O)CC#N` (configuration not stated) was tested, and the GI50 (OVCAR-8) was > 100 µM (inactive), the GI50 (DMS-114) was > 100 µM (inactive) and the GI50 (SNB-78) was > 100 µM (inactive). For the same compound, the GI50 (SF-295) was > 100 µM (inactive), the GI50 (MOLT-4) was > 100 µM (inactive) and the GI50 (XF498) was > 100 µM (inactive). For the same compound, the GI50 (HOP-18) was > 100 µM (inactive), the GI50 (OVCAR-5) was > 100 µM (inactive) and the GI50 (SF-539) was > 100 µM (inactive). For the same compound, the GI50 (NCI-H460) was > 100 µM (inactive), the GI50 (HCC 2998) was > 100 µM (inactive) and the GI50 (EKVX) was > 100 µM (inactive). For the same compound, the GI50 (IGROV-1) was > 100 µM (inactive), the GI50 (KM-20L2) was > 100 µM (inactive) and the GI50 (SK-MEL-28) was > 100 µM (inactive). The GI50 (SR) was > 100 µM (inactive), the GI50 (HL-60) was > 100 µM (inactive) and the GI50 (SNB-75) was > 100 µM (inactive). For the same compound, the GI50 (SK-OV-3) was > 100 µM (inactive), the GI50 (M19-MEL) was > 100 µM (inactive) and the GI50 (HT-29) was > 100 µM (inactive). The GI50 (HCT-116) was > 100 µM (inactive), the GI50 (HOP-92) was 48.8 µM (inactive) and the GI50 (786-0) was > 100 µM (inactive). For the same compound, the GI50 (UACC-257) was > 100 µM (inactive), the GI50 (TK-10) was > 100 µM (inactive) and the GI50 (HCT-15) was greater than 100 µM. The GI50 (COLO 205) was > 100 µM (inactive), the GI50 (LXFL 529) was > 100 µM (inactive) and the GI50 (CAKI-1) was > 100 µM (inactive). For the same compound, the GI50 (KM12) was > 100 µM (inactive), the GI50 (NCI-H226) was > 100 µM (inactive) and the GI50 (A549) was > 100 µM (inactive). The GI50 (DLD-1) was > 100 µM (inactive), the GI50 (Malme-3M) was > 100 µM (inactive) and the GI50 (NCI-H522) was > 100 µM (inactive). The GI50 (SW-620) was > 100 µM (inactive), the GI50 (SK-MEL-2) was > 100 µM (inactive) and the GI50 (DMS-273) was > 100 µM (inactive). For the same compound, the GI50 (RXF 631) was > 100 µM (inactive), the GI50 (NCI-H23) was > 100 µM (inactive) and the GI50 (RPMI-8226) was > 100 µM (inactive). The GI50 (ACHN) was > 100 µM (inactive), the GI50 (OVCAR-3) was > 100 µM (inactive) and the GI50 (CCRF-CEM) was > 100 µM (inactive). The GI50 (K562) was > 100 µM (inactive), the GI50 (UO-31) was > 100 µM (inactive) and the GI50 (HOP-62) was > 100 µM (inactive). The GI50 (UACC-62) was > 100 µM (inactive), the GI50 (SN12C) was > 100 µM (inactive) and the GI50 (OVCAR-4) was > 100 µM (inactive). For the same compound, the GI50 (A498) was > 100 µM (inactive), the GI50 (SNB-19) was > 100 µM (inactive) and the GI50 (SK-MEL-5) was > 100 µM (inactive). The GI50 (SF-268) was > 100 µM (inactive), the GI50 (M14) was > 100 µM (inactive) and the GI50 (U-251) was > 100 µM (inactive).

Reference: ChEMBL document CHEMBL1201862, “PubChem BioAssay data set” (2004)
